Reference: patent publication US20230295200A1 (REGENTS OF THE UNIVERSITY OF MICHIGAN, priority 2022, published 2023)
pKi: −log10 of the molar value.

Legend:
STAT6 protein = target: T1, STAT6 protein (Homo sapiens, UniProt P42226); assay: Fluorescence polarization (FP) binding assay, STAT6; conditions: FP competition, 5 nM fluorescein-labeled tracer, 200 nM protein, PBS pH7.4; read-out: Binding STAT6
T1 sequence (P42226 1-847): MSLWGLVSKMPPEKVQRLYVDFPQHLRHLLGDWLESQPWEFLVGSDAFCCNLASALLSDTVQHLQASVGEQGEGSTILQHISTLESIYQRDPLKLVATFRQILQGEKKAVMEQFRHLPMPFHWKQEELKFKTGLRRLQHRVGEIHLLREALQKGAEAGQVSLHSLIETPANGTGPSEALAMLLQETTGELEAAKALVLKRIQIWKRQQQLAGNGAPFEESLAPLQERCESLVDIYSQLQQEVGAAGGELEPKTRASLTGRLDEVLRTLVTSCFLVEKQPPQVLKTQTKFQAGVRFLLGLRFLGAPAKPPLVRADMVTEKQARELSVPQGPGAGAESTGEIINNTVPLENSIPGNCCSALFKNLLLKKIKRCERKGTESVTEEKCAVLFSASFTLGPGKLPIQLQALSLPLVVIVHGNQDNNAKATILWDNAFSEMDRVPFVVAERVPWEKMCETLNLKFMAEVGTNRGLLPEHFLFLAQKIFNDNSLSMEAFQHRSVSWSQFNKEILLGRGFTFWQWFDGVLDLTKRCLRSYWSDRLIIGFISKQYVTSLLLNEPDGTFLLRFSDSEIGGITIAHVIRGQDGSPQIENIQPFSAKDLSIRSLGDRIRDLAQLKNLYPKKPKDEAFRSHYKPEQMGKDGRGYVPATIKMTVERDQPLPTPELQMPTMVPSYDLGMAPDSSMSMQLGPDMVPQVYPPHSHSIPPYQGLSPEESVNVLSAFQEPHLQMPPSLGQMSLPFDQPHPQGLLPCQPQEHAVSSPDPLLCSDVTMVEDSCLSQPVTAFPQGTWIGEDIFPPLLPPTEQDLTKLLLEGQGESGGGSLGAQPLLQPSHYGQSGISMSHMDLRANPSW
How it was run: (§1)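 5 nM fluorescein tracer + 200 nM STAT protein; PBS pH 7.4, 0.01% BGG, 0.01% Tween-20, 2 mM DTT; shake 15 min, 1 h RT equilibrium; FP read; nonlinear fit for inhibition constants.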

STAT5A = target: T2, STAT5A (Homo sapiens, UniProt P42229); assay: Fluorescence polarization (FP) binding assay, STAT5A; conditions: FP competition, 5 nM fluorescein-labeled tracer, 200 nM protein, PBS pH7.4
T2 sequence (P42229 1-794): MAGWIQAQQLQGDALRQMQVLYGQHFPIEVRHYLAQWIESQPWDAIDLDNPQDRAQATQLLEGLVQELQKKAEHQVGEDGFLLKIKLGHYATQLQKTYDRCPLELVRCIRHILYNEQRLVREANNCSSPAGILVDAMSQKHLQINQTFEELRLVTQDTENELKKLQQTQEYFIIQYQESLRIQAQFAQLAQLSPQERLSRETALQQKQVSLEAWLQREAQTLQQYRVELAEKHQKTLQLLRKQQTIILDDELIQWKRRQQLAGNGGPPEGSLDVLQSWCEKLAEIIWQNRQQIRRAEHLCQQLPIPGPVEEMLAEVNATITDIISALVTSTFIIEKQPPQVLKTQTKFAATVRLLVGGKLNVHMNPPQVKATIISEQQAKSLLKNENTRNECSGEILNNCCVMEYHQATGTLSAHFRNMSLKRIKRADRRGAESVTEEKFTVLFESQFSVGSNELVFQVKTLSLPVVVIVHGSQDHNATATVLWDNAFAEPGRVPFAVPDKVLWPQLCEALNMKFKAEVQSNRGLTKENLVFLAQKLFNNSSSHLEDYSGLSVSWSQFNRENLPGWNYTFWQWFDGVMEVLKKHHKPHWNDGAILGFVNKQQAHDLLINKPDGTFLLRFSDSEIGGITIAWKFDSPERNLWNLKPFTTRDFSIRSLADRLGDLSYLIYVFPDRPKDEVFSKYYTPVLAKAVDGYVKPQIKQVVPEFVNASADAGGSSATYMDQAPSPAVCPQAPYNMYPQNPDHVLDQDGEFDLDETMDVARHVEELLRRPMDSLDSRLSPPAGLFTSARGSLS
How it was run: as §1

Row | pKi (STAT6 protein) | pKi (STAT5A) | SMILES
1 | < 5.00 | 5.00 to 6.00 | CC(C)(C)[C@H](NC(=O)c1cc2cc(C(F)(F)P(=O)(O)O)ccc2s1)C(=O)N1CCCCC[C@H]1C(=O)N1CC[C@@H](c2ccccc2)C1 [Compound 186, ((2-(((S)-3,3-dimethyl-1-oxo-1-((S)-2-((S)-3-phenylpyrrolidine-1-carbonyl)azepan-1-yl)butan-2-yl)carbamoyl)benzo[b]thiophen-5-yl)difluoromethyl)phosphonic acid]
2 | 5.00 to 6.00 | < 5.00 | CC(C)(C)[C@H](NC(=O)c1cc2cc(C(F)(F)P(=O)(O)O)ccc2s1)C(=O)N1CCCCC[C@H]1C(=O)N1Cc2ccccc2C1 [Compound 187, (difluoro(2-(((S)-1-((S)-2-(isoindoline-2-carbonyl)azepan-1-yl)-3,3-dimethyl-1-oxobutan-2-yl)carbamoyl)benzo[b]thiophen-5-yl)methyl)phosphonic acid]
3 | 5.00 to 6.00 | 6.00 to 7.00 | CC(C)(C)[C@H](NC(=O)c1cc2cc(C(F)(F)P(=O)(O)O)ccc2s1)C(=O)N1CCCCC[C@H]1C(=O)Nc1ncc(-c2ccccc2)s1 [Compound 188, ((2-(((S)-3,3-dimethyl-1-oxo-1-((S)-2-((5-phenylthiazol-2-yl)carbamoyl)azepan-1-yl)butan-2-yl)carbamoyl)benzo[b]thiophen-5-yl)difluoromethyl)phosphonic acid]
4 | 6.00 to 7.00 | 5.00 to 6.00 | CC(C)(C)[C@H](NC(=O)c1cc2cc(C(F)(F)P(=O)(O)O)ccc2s1)C(=O)N1Cc2ccccc2CC1C(=O)N1CCO[C@H](c2ccccc2)C1 (stereo partly drawn) [Compound 189, ((2-(((2S)-3,3-dimethyl-1-oxo-1-(3-((R)-2-phenylmorpholine-4-carbonyl)-3,4-dihydroisoquinolin-2(1H)-yl)butan-2-yl)carbamoyl)benzo[b]thiophen-5-yl)difluoromethyl)phosphonic acid]
5 | 6.00 to 7.00 | 5.00 to 6.00 | CC(C)(C)[C@H](NC(=O)c1cc2cc(C(F)(F)P(=O)(O)O)ccc2s1)C(=O)N1Cc2ccccc2CC1C(=O)N1CCC[C@H](c2ccccc2)C1 (stereo partly drawn) [Compound 190, ((2-(((2S)-3,3-dimethyl-1-oxo-1-(3-((R)-3-phenylpiperidine-1-carbonyl)-3,4-dihydroisoquinolin-2(1H)-yl)butan-2-yl)carbamoyl)benzo[b]thiophen-5-yl)difluoromethyl)phosphonic acid]
6 | 5.00 to 6.00 | < 5.00 | CC(C)(C)[C@H](NC(=O)c1cc2cc(C(F)(F)P(=O)(O)O)ccc2s1)C(=O)N1Cc2ccccc2CC1C(=O)N1CC[C@H](c2ccccc2)C1 (stereo partly drawn) [Compound 191, ((2-(((2S)-3,3-dimethyl-1-oxo-1-(3-((R)-3-phenylpyrrolidine-1-carbonyl)-3,4-dihydroisoquinolin-2(1H)-yl)butan-2-yl)carbamoyl)benzo[b]thiophen-5-yl)difluoromethyl)phosphonic acid]
7 | < 5.00 | < 5.00 | CC(C)(C)[C@H](NC(=O)c1cc2cc(C(F)(F)P(=O)(O)O)ccc2s1)C(=O)N1Cc2ccccc2CC1C(=O)N1CC[C@@H](c2ccccc2)C1 (stereo partly drawn) [Compound 192, ((2-(((2S)-3,3-dimethyl-1-oxo-1-(3-((S)-3-phenylpyrrolidine-1-carbonyl)-3,4-dihydroisoquinolin-2(1H)-yl)butan-2-yl)carbamoyl)benzo[b]thiophen-5-yl)difluoromethyl)phosphonic acid]
8 | < 5.00 | < 5.00 | CC(C)(C)[C@H](NC(=O)c1cc2cc(C(F)(F)P(=O)(O)O)ccc2s1)C(=O)N1Cc2ccccc2CC1C(=O)N1Cc2ccccc2C1 (stereo partly drawn) [Compound 193, (difluoro(2-(((2S)-1-(3-(isoindoline-2-carbonyl)-3,4-dihydroisoquinolin-2(1H)-yl)-3,3-dimethyl-1-oxobutan-2-yl)carbamoyl)benzo[b]thiophen-5-yl)methyl)phosphonic acid]
9 | 5.00 to 6.00 | 6.00 to 7.00 | CC(C)(C)[C@H](NC(=O)c1cc2cc(C(F)(F)P(=O)(O)O)ccc2s1)C(=O)N1Cc2ccccc2CC1C(=O)Nc1ncc(-c2ccccc2)s1 (stereo partly drawn) [Compound 194, ((2-(((2S)-3,3-dimethyl-1-oxo-1-(3-((5-phenylthiazol-2-yl)carbamoyl)-3,4-dihydroisoquinolin-2(1H)-yl)butan-2-yl)carbamoyl)benzo[b]thiophen-5-yl)difluoromethyl)phosphonic acid]
10 | > 7.00 | 5.00 to 6.00 | CC(C)(C)[C@H](NC(=O)c1cc2cc(C(F)(F)P(=O)(O)O)ccc2s1)C(=O)N1Cc2ccccc2[C@H]1C(=O)N1CCO[C@H](c2ccccc2)C1 [Compound 195, ((2-(((S)-3,3-dimethyl-1-oxo-1-((S)-1-((R)-2-phenylmorpholine-4-carbonyl)isoindolin-2-yl)butan-2-yl)carbamoyl)benzo[b]thiophen-5-yl)difluoromethyl)phosphonic acid]
11 | > 7.00 | 5.00 to 6.00 | CC(C)(C)[C@H](NC(=O)c1cc2cc(C(F)(F)P(=O)(O)O)ccc2s1)C(=O)N1Cc2ccccc2[C@H]1C(=O)N1CCC[C@H](c2ccccc2)C1 [Compound 196, ((2-(((S)-3,3-dimethyl-1-oxo-1-((S)-1-((R)-3-phenylpiperidine-1-carbonyl)isoindolin-2-yl)butan-2-yl)carbamoyl)benzo[b]thiophen-5-yl)difluoromethyl)phosphonic acid]
12 | 5.00 to 6.00 | < 5.00 | CC(C)(C)[C@H](NC(=O)c1cc2cc(C(F)(F)P(=O)(O)O)ccc2s1)C(=O)N1Cc2ccccc2[C@H]1C(=O)N1CC[C@H](c2ccccc2)C1 [Compound 197, ((2-(((S)-3,3-dimethyl-1-oxo-1-((S)-1-((R)-3-phenylpyrrolidine-1-carbonyl)isoindolin-2-yl)butan-2-yl)carbamoyl)benzo[b]thiophen-5-yl)difluoromethyl)phosphonic acid]
13 | 6.00 to 7.00 | 5.00 to 6.00 | CC(C)(C)[C@H](NC(=O)c1cc2cc(C(F)(F)P(=O)(O)O)ccc2s1)C(=O)N1Cc2ccccc2[C@H]1C(=O)N1CC[C@@H](c2ccccc2)C1 [Compound 198, ((2-(((S)-3,3-dimethyl-1-oxo-1-((S)-1-((S)-3-phenylpyrrolidine-1-carbonyl)isoindolin-2-yl)butan-2-yl)carbamoyl)benzo[b]thiophen-5-yl)difluoromethyl)phosphonic acid]
14 | 5.00 to 6.00 | < 5.00 | CC(C)(C)[C@H](NC(=O)c1cc2cc(C(F)(F)P(=O)(O)O)ccc2s1)C(=O)N1Cc2ccccc2[C@H]1C(=O)N1Cc2ccccc2C1 [Compound 199, (difluoro(2-(((S)-1-((S)-1-(isoindoline-2-carbonyl)isoindolin-2-yl)-3,3-dimethyl-1-oxobutan-2-yl)carbamoyl)benzo[b]thiophen-5-yl)methyl)phosphonic acid]
15 | 5.00 to 6.00 | 6.00 to 7.00 | CC(C)(C)[C@H](NC(=O)c1cc2cc(C(F)(F)P(=O)(O)O)ccc2s1)C(=O)N1Cc2ccccc2[C@H]1C(=O)Nc1ncc(-c2ccccc2)s1 [Compound 200, ((2-(((S)-3,3-dimethyl-1-oxo-1-((S)-1-((5-phenylthiazol-2-yl)carbamoyl)isoindolin-2-yl)butan-2-yl)carbamoyl)benzo[b]thiophen-5-yl)difluoromethyl)phosphonic acid]
